Experimental data: article PMC7683545, “Human TRPC5 structures reveal interaction of a xanthine-based TRPC1/4/5 inhibitor with a conserved lipid binding site” (Communications Biology, 2020)
Residue numbers refer to the chain shown, from its start. Numbers in names are those of the source.

How the values were obtained:
TRPC5 [1] = molecular target: T1, TRPC5 (Homo sapiens, UniProt Q9UL62, V455M/Q573T); test: Fura-2 intracellular calcium assay in transfected HEK […] cells; assay type: cell-based; conditions: read-out: AM237 EC50
T1 construct: TRPC5-SYFP2 Q573T
T1 sequence (Q9UL62 1-973 V455M/Q573T): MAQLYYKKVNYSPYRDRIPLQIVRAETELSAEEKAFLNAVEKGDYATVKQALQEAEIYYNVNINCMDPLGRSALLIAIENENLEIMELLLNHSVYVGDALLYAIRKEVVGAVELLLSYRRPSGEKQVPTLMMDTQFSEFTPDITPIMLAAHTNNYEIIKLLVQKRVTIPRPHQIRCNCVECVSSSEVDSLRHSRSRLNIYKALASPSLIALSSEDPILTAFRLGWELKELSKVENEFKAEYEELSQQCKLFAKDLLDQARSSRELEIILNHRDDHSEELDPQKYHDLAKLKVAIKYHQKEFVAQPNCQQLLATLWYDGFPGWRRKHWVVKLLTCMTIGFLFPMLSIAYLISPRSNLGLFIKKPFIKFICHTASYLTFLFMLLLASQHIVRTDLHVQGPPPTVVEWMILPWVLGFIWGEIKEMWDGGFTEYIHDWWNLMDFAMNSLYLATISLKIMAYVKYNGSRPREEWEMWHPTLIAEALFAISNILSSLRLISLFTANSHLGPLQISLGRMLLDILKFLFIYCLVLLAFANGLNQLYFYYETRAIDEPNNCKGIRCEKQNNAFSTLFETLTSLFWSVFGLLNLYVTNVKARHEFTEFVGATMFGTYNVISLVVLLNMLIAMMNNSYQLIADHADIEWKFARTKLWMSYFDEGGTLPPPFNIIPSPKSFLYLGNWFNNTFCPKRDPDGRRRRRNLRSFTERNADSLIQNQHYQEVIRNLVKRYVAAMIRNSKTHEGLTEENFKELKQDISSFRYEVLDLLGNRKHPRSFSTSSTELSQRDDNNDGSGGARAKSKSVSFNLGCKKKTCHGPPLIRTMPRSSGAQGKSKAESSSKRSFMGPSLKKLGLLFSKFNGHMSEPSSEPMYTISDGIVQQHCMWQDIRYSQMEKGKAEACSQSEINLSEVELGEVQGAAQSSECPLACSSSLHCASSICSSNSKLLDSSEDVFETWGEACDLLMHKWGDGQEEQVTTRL

TRPC5 [2] = molecular target: T2, TRPC5 (Homo sapiens, UniProt Q9UL62, V455M); test: as above; assay type: cell-based
T2 construct: TRPC5-SYFP2, wild-type (contains the previously described V455M)
T2 sequence (Q9UL62 1-973 V455M): T1 sequence (Q9UL62 1-973 V455M/Q573T) with T573Q

[3] = molecular target: T3, TRPC5 (human TRPC5:C5 channel) (Homo sapiens, UniProt Q9UL62, V455M); test: cryo-EM structure at […] Å; also inhibition of EA-activated channel in HEK […] calcium assay; assay type: cell-based
T3 construct: MBP-PreS-hTRPC5Δ766–975 (C-terminally truncated), homotetramer
T3 sequence (Q9UL62 1-765 V455M): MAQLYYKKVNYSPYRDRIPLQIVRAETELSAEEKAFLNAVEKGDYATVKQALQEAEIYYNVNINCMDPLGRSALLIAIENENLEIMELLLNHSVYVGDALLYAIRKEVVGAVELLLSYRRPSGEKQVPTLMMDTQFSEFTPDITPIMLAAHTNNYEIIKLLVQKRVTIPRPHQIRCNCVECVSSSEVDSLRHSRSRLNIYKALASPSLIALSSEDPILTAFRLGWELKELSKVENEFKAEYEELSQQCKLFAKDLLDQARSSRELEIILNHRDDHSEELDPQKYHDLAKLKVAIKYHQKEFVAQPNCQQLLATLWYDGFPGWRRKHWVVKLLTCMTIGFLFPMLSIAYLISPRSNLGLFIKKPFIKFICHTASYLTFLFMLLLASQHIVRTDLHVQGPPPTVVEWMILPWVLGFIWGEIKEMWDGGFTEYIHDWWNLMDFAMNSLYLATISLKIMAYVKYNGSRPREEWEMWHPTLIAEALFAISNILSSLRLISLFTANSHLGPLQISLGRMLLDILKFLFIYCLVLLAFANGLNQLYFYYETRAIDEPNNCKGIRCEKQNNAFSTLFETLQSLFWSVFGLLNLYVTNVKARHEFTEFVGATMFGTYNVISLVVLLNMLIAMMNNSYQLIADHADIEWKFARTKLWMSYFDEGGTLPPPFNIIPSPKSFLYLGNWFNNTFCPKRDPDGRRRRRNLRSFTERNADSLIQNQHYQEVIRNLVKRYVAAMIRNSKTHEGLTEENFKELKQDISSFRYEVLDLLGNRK

[4] = molecular target: the molecule itself; test: cryo-EM structure; purified TRPC5 in PMAL-C8 at 2 mg/ml with 100 µM Pico145 (also 1 mg/ml with 50 µM Pico145 or 20 µM ZnCl2); C4 symmetry, also refined with C1

Cn1c(=O)n(CCCO)c(=O)c2c1nc(Oc1ccc(Cl)c(OC(F)(F)F)c1)n2Cc1ccc(Cl)cc1 [AM237]
EC50 (TRPC5 [1]): 110 nM
EC50 (TRPC5 [2]): 10.6 nM

Cn1c(=O)n(CCCO)c(=O)c2c1nc(Oc1cccc(OC(F)(F)F)c1)n2Cc1ccc(Cl)cc1 [Pico145]
IC50 [3]: 4 nM

B1: MBP-PreS-hTRPC5(Δ766–975) (complex, human, UniProt Q9UL62 1-765, looked up)
chain: T3 sequence (Q9UL62 1-765 V455M)
notes: Transient Receptor Potential Canonical 5 (TRPC5), human, C-terminally truncated (Δ766–975), carries V455M from the PCR template TRPC5-SYFP2; A PreScission protease site (PreS) lies between MBP and TRPC5; MBP, PreS and the first 16 residues of TRPC5 were not resolved in the map; Homotetrameric channel in amphipol PMAL-C8; also called human TRPC5; TRPC5:C5 channel; not shown: MBP, N-terminal, kept
stoichiometry N [4]: 4
